# In patent publication US20230270721A1, “INHIBITION OF BAX-MEDIATED CELL DEATH BY ELTROMBOPAG” (Albert Einstein College of Medicine, priority 2020, published 2023):
# Where two headings read alike, the source gives them in different places.
# Key:
# [1] = tested on: BAX-/-MEFs; assay: Caspase 3/7 assay, STS-induced apoptosis, MEFs expressing only BAK; format: cell-based, mouse; conditions: 3 µM STS, 6 hr
# Excerpt: (§1) FIGS. 7A, 7B, 7C, 7D, 7E, and 7F are a set of diagrams showing that eltrombopag inhibits BAX translocation and BAX-mediated apoptosis in cells. […] BAX translocation is based on antibody-based detection of BAX and mitochondrial protein TOMM20. Representative confocal micrographs from three independent biological experiments. Scale bar, 20 µm. […] Data represent ±SEM of three independent biological replicates. Two-sided t test, ****P < 0.0001; ***P < 0.001; **P < 0.01; *P < 0.05; ns, P > 0.05. […] Actin and VDAC are loading controls for cytosolic and mitochondrial fractions, respectively. FIGS. 7D and 7E show a caspase 3/7 assay of BAK-/- mouse embryonic fibroblasts (MEFs) (FIG. 7D) and BAX-/-MEFs (FIG. 7E) in response to 3 µM STS and the presence or absence of various doses of EO for 6 hr. […]
# (§2) It is important to note that THPO-receptor agonist activity of EO is highly specific to the human and chimpanzee THPO-receptors, making mouse cell lines ideal for studying EO modulation of BAX-dependent activity independent of THPO-mediated effects (Erickson-Miller, C. L. et al. Stem Cells 27, 424-430 (2009)). First, mitochondrial cytochrome c release, a hallmark of BAX activation and BAX-dependent apoptosis, was evaluated. […] Next, mitochondrial translocation of cytosolic BAX upon treatment with either BIM BH3 or staurosporine (STS) in BAK KO MEFs was evaluated.
# [2] = tested on: BAK-/- mouse embryonic fibroblasts (MEFs); assay: Caspase 3/7 assay, STS-induced apoptosis, MEFs expressing only BAX; format: cell-based; conditions: 3 µM STS, 6 hr
# Excerpt: as §1, §2
# [3] = target: T1, BAX (Homo sapiens, UniProt Q07812); assay: Liposomal translocation assay with NBD-labeled BAX; format: biochemical; conditions: for IC50: NBD-labeled BAX 800 nM, 120 minutes
# T1 construct: Human full-length (1-192) wild-type BAX (Q07812); made in house; host or cells: E. coli BL21 (DE3) CodonPlus (DE3)-RIPL
# Method: Lipids (Avanti Polar Lipids) at the following ratio, phosphatidylcholine 48%, phosphatidylinositol 10%, dioleoyl phosphatidylserine 10%, phosphatidylethanolamine, 28%, and tetraoleoyl cardiolipin 4%, were mixed in a total of 1 mg, dried and resuspended in 10 mM HEPES, pH 7, 200 mM KCl, and 5 mM MgCl2. The resulting slurry was vortexed for 10 minutes and sonicated in a sonicating water bath for 10 minutes. Liposomes were formed by extrusion of the suspension using Avanti Mini-Extruder with polycarbonate membranes of 0.1 µm pore size (Avanti Polar Lipids) followed by passage through a CL2B Sepharose column (GE Healthcare). Recombinant wild type BAX was labeled at cysteine by overnight incubation at 4° C. with 10 equivalents of iodoamino-NBD (IANBD, Thermo Fisher) and 3 equivalents of TCEP to maintain reduced cysteine. Labeled BAX (BAX-NBD) was separated from unreacted IANBD by gel filtration (Econo-Pac 10 DG desalting column, BioRad) and used immediately. […] Upon BAX-NBD translocation, the NBD fluorophore was excluded from bulk water through contact with the liposomal membrane leading to an increase in fluorescence intensity. Fluorescence (λex = 475 nm and λem = 530 nm) was measured at 1-minute intervals at 37° C. indicated using a Tecan Infinite M1000 plate reader. The percentage translocation at any given time point was calculated as percentage translocation=[((F-F0)/(F100-F0))(100)]-[((FS-FS0)/(FS100-FS0))(100)] where F0 and F100 are baseline and maximal fluorescence, respectively and FS, FS0, and FS100 are the current fluorescence, baseline fluorescence, maximal fluorescence of solution BAX incubated in the absence of liposomes. The subtraction of the percent translocation of solution BAX is required to correct for NBD fluorescence bleaching that occurs throughout the reaction. […]
# Prior to permeabilizing membranes, activated BAX must first translocate to the membrane (Lovell, J. F. et al. Cell 135, 1074-1084, (2008)). To explore this earlier step in BAX activation, an NBD-fluorescence-based translocation assay was used. […]
# [4] = tested on: BAK KO (BAK-/-) MEFs; assay: Cytochrome c release assay (ELISA), BAK KO MEFs; format: cell-based, mouse; parameters: dose or concentration left out as unconfirmed; conditions: BIM-BH3 peptide, EO pretreatment 2 hours
# Method: BAX^-/^- or BAK^-/^- mouse embryonic fibroblasts were maintained in DMEM (Life Technologies) supplemented with 10% FBS, 100 U/mL penicillin/streptomycin, 2 mM I-glutamine, and 0.1 mM MEM nonessential amino acids. MEFs (5×10^4 cells/well) were seeded in a 96 well clear u-bottom plate for 18-24 hr. Media was removed and replaced with media lacking FBS, and cells were treated with varying doses of EO for 2 hours at 37° C. […] Cytochrome c release was determined by decanting 50 µL of the supernatant and analyzing with the rat/mouse cytochrome c quantikine ELISA kit (R&D Systems, MCTO) according to the recommended protocol. […]
# as §2
# T1 sequence (Q07812 whole entry): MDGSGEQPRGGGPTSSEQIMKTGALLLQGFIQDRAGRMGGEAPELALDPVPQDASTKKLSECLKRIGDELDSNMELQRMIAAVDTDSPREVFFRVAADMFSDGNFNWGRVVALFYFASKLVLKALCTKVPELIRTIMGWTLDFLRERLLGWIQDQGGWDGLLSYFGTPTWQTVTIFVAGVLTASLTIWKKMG
smiles,measurement,setting,value
"CC1=NN(c2ccc(C)c(C)c2)C(=O)/C1=N\Nc1cccc(-c2cccc(C(=O)O)c2)c1O [EO, eltrombopag]",STS-induced apoptosis mediated by caspase 3/7 activity,[1],no effect
same,STS-induced apoptosis mediated by caspase 3/7 activity,[2],inhibited STS-induced apoptosis
same,IC50,"[3]; BIM BH3 1 µM, read-out: BIM IC50, inhibition of BAX translocation",5.7 µM
same,IC50,"[3]; tBID 200 nM, read-out: tBID IC50, inhibition of BAX translocation",6.3 µM
same,heat-induced auto-translocation of BAX,"[3]; heat-induced, no BH3 activator",capable of inhibiting heat-induced auto-translocation of BAX
same,BIM-BH3 induced release of cytochrome c,[4],significantly inhibited
